# Measured values reported in the supplement of paper PMC11061612.
# What was measured:
# [1] = tested on: IM-9 (Non-Cancerous); assay: combination Emax (second highest fraction inhibited in the dose matrix, 72 h); higher = more inhibition; extreme values may be limits of the assay
# Procedure, shortened: (§1)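 Cell lines in DMEM/F12 or RPMI with 10% FBS were plated in 1536-well plates, held 24 hours at 37°C, 5% CO2, then given two-drug dose matrices for 72 hours (DMSO typically 0.2%). Viability was read by CellTiter-Glo 2.0 luminescence and scaled as inhibition from 0 (vehicle wells) to 1 (blank wells). Combination Emax is the second-highest inhibition in the matrix; Bliss excess is observed combination effect minus expected EA + EB − EA·EB, EA and EB being single-agent effects.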
# [2] = tested on: WM1552C (Melanoma); assay: as above
# Procedure, shortened: as §1
# [3] = tested on: DMS-53 (Small Cell Lung Carcinoma); assay: as above
# Procedure, shortened: as §1
# [4] = tested on: A253 (Head and Neck Carcinoma); assay: as above
# Procedure, shortened: as §1
# [5] = tested on: JHU-022 (Oral Cavity Carcinoma); assay: as above
# Procedure, shortened: as §1
# [6] = tested on: NCI-H1651 (Lung Adenocarcinoma); assay: Bliss excess, mean over the matrix (fraction); higher = more synergy
# Procedure, shortened: as §1
# [7] = tested on: PEO1 (Ovarian Carcinoma); assay: as above
# Procedure, shortened: as §1
# [8] = tested on: UACC-812 (Breast Carcinoma); assay: as above
# Procedure, shortened: as §1
# [9] = tested on: NCI-H441 (Lung Adenocarcinoma); assay: as above
# Procedure, shortened: as §1
# [10] = tested on: KP-N-YN (Neuroblastoma); assay: as above
# Procedure, shortened: as §1
# [11] = tested on: MHH-ES-1 (Ewing's Sarcoma); assay: as above
# Procedure, shortened: as §1
# [12] = tested on: EW-7 (Ewing's Sarcoma); assay: as above
# Procedure, shortened: as §1
# [13] = tested on: CAL-27 (Oral Cavity Carcinoma); assay: as above
# Procedure, shortened: as §1
# [14] = tested on: KYSE-220 (Esophageal Squamous Cell Carcinoma); assay: as above
# Procedure, shortened: as §1
# [15] = tested on: JHH-2 (Hepatocellular Carcinoma); assay: as above
# Procedure, shortened: as §1
# [16] = tested on: CESS (Acute Myeloid Leukemia); assay: as above
# Procedure, shortened: as §1
# [17] = tested on: ESO26 (Esophageal Adenocarcinoma); assay: as above
# Procedure, shortened: as §1
# [18] = tested on: A253 (Head and Neck Carcinoma); assay: as above
# Procedure, shortened: as §1
# [19] = tested on: 769-P (Kidney Carcinoma); assay: as above
# Procedure, shortened: as §1
# [20] = tested on: G-402 (Other Solid Carcinomas); assay: as above
# Procedure, shortened: as §1
# 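Throughout, for Bliss excess, mean over the matrix: after 72 h of two-drug dosing.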
Structure (SMILES),combination Emax [1],combination Emax [2],combination Emax [3],combination Emax [4],combination Emax [5],Bliss excess [6],Bliss excess [7],Bliss excess [8],Bliss excess [9],Bliss excess [10],Bliss excess [11],Bliss excess [12],Bliss excess [13],Bliss excess [14],Bliss excess [15],Bliss excess [16],Bliss excess [17],Bliss excess [18],Bliss excess [19],Bliss excess [20]
"CCN(CCO)CCCOc1ccc2c(Nc3cc(CC(=O)Nc4cccc(F)c4)[nH]n3)ncnc2c1 [AZD2811] + C=CCn1c(=O)c2cnc(Nc3ccc(N4CCN(C)CC4)cc3)nc2n1-c1cccc(C(C)(C)O)n1 [AZD1775] (first compound max 1 µM, partner max 1 µM)",0.999,0.424,0.111,0.407,0.388,-0.0268,-0.0025,-0.0352,-0.0518,-0.027,0.0089,0.0623,0.0013,-0.0225,0.0198,0.0173,-0.0247,0.0566,-0.0267,-0.0106
"CCN(CCO)CCCOc1ccc2c(Nc3cc(CC(=O)Nc4cccc(F)c4)[nH]n3)ncnc2c1 [AZD2811] + C[C@@H]1COCCN1C2=NC(=NC(=C2)C3(CC3)[S@](=N)(=O)C)C4=C5C=CNC5=NC=C4 [AZD6738] (first compound max 1 µM, 7x7, partner max 10 µM)",0.981,0.642,0.144,0.756,0.535,-0.0555,-0.0718,-0.0303,-0.0324,-0.0751,-0.0145,-0.0469,-0.0452,-0.0541,-0.0196,-0.0259,-0.0427,-0.0471,-0.0107,-0.0703
"CCN(CCO)CCCOc1ccc2c(Nc3cc(CC(=O)Nc4cccc(F)c4)[nH]n3)ncnc2c1 [AZD2811] + O=C(c1cc(Cc2n[nH]c(=O)c3ccccc23)ccc1F)N1CCN(C(=O)C2CC2)CC1 [Olaparib] (first compound max 1 µM, 7x7, partner max 10 µM)",0.981,0.377,0.181,0.25,0.271,0.0136,-0.0019,0.0076,-0.0417,0.0058,-0.0214,0.0067,0.0484,0.01,-0.0748,0.0591,-0.0311,0.0485,-0.018,-0.0281
"CN(CCO)CC[C@H](CSc1ccccc1)Nc1ccc(S(=O)(=O)NC(=O)c2ccc(N3CCC([C@@H](O)c4ccccc4-c4ccc(Cl)cc4)CC3)cc2)cc1S(=O)(=O)C(F)(F)F [AZD4320] + CN(C)CCCOc1ccc(-c2ccc3ncc4c(c3c2)n(C2CCOCC2)c(=O)n4C)cn1 [AZD0156] (first compound max 1 µM, 7x7, partner max 1 µM)",0.459,0.163,0.965,0.173,0.102,-0.026,-0.0753,-0.0283,-0.022,-0.0064,-0.0062,0.0524,-0.0136,-0.0385,-0.0486,-0.0814,-0.025,0.0114,-0.0444,-0.0458
"COc1nnc2ccc(N3CCC(c4ccc(OCCN5CCN(C)C(=O)[C@H]5C)cc4)CC3)nn12 [AZD5153] + C=CCn1c(=O)c2cnc(Nc3ccc(N4CCN(C)CC4)cc3)nc2n1-c1cccc(C(C)(C)O)n1 [AZD1775] (first compound max 1 µM, partner max 1 µM)",0.975,0.439,0.51,0.356,0.417,0.0305,0.058,-0.0066,-0.0322,-0.135,-0.0662,-0.0403,-0.0481,-0.0622,-0.1,-0.0643,-0.0501,-0.0328,-0.0321,-0.0226
"CC(=O)c1c(C)c2cnc(Nc3ccc(N4CCNCC4)cn3)nc2n(C2CCCC2)c1=O [Palbociclib] + Cc1c2c(nn1C)CSCc1cc(n(C)n1)CSc1cc(c3ccccc3c1)OCCCc1c(C(=O)O)n(C)c3c-2c(Cl)ccc13 [AZD5991] (first compound max 10 µM, 7x7, partner max 1 µM)",0.714,0.638,0.263,0.635,0.167,-0.0239,-0.0483,–,-0.0362,0.0562,-0.008,-0.0005,-0.0869,-0.0645,-0.0475,-0.0341,-0.0467,-0.134,-0.004,0.0106
"CC(=O)c1c(C)c2cnc(Nc3ccc(N4CCNCC4)cn3)nc2n(C2CCCC2)c1=O [Palbociclib] + Cn1cnc2c(F)c(Nc3ccc(Br)cc3Cl)c(C(=O)NOCCO)cc21 [Selumetinib] (first compound max 10 µM, 7x7, partner max 10 µM)",0.906,0.47,0.212,0.189,0.54,-0.0391,-0.0055,–,0.0506,-0.0253,-0.0061,0.0709,-0.0132,0.0235,0.0347,0.0202,0.0104,-0.0864,0.039,0.0399
